Results taken from patent US7973024B2, “24-sulfoximine vitamin D3 compounds” (Cyctochroma Inc., priority 2002, dated 2011).

Assays:
[1] = molecular target: T1, CYP24 (Homo sapiens, UniProt Q07973); assay: CYP24 enzyme assay (induced HPK1A-ras cells); format: cell-based; details: HPK1A-ras cells induced with 1,25(OH)2D3; [3H]-1,25(OH)2D3 substrate, 2 hour
T1 construct: expressed in transfected cells
T1 sequence (Q07973 36-514): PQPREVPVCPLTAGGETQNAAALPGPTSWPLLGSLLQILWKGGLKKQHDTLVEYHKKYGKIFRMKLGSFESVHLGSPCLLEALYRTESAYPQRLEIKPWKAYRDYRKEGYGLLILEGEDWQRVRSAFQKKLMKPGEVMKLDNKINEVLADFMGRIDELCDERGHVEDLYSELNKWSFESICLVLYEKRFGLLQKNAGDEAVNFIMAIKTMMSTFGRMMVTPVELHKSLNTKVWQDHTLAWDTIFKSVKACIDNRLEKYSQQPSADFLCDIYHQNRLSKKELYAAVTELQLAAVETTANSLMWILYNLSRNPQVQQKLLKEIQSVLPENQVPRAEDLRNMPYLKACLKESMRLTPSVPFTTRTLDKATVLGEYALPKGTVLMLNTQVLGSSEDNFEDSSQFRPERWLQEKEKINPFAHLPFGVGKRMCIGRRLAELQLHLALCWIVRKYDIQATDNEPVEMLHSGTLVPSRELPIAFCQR
Procedure: 1.25(OH)2D3 10^−5 M (Sigma, St. Louis, Mo.);
Preparation of 10^−5 M working solution is as follows:
Dissolve 1 mg of 1,25(OH)2D3 into 480 μl of isopropanol to make 5×10^−3 M stock solution. Store at −70° C. until needed. Aliquot 1 μl of 1.25(OH)2D3 5×10^−3 M stock solution to 499 μl of isopropanol to make 1.25(OH)2D3 10^−5 working solution. Store at −20° C. until needed. […] Induction of HPKIA-ras cells (The day before assay) • When the HPK1A-ras cells were 80-90% confluent, added 1 μL 10^−5 M 1.25(OH)2D3 to 1 mL medium in the plate (final concentration is 10^−8 M). • 2. Preparation of cell suspension • After 18 to 20 hours induction, removed the medium and washed the cell twice with PBS. Then tripsinized the cells from plate, centrifuged (2,000 rpm, 5 min) and suspended cells pellet in DMEM medium+1% BSA. • Counted the cells and adjusted cells density to 250,000/150 μL, added 150 μL cell suspension to each well in 48-well plate (including 3 wells as a no cell control, and 3 well cells without drug or inhibitor as controls). • 3. […] Kept the plate in 37° C. for 10 min. • 4. Preparation of substrate • For each ml required, added 972 μl of DMEM+1% BSA medium, 20 μl of 3H-1,25(OH)2D3, and 8 μl of 100 nM DPPD to a tube and vortexed. • 5. Incubation • Added 25 μL substrate to each well, incubated the plate at 37° C. for 2 hour. • Added 25 μL substrate to counting plate (2 well) as a total count. • 6. Lipid Extraction and Counting • Added 500 μL methanol to each well to stop the reaction, transferred them to tube. • Added 250 μL dichloromethane and vortex. • Added 250 μL dichloromethane and […] saturated KCI, and vortex. • Centrifuged at 4000 rpm for 5 min. • Transferred 100 μL of aqueous phase (upper phase) to counting plastic counting plate. Added 600 μL of scintillation fluid to each well. Counted the plate in scintillation counter. • 7. Calculation Enzyme Activity • CPM of cell control after subtraction of CPM of non-cell control (NCC) was as 100% enzyme activity.
• Dilution of test compounds • Stock 10^−3 M

[2] = molecular target: T1, CYP24; assay: CYP24 enzyme assay (stable cell line V79-CYP24 cells); format: cell-based; details: [3H-1β]-1α,25(OH)2D3 20 nM, 2 hours
Procedure: 1. Preparation of Cell Suspension • On the day of the assay, washed the monolayer of V79-CYP24 cells once with 1×PBS buffer and then trypsinize for 5 min at room temperature (approx. 22° C.). Added 1×PBS. Collected cells into tube, centrifuged cells (500×g, 5 min) and resuspended in DMEM+1% BSA media.
2. Cell Plating • Added 150 μl of cell suspension to appropriately labelled wells of a 48-well plate. Incubated plate for 30 minutes at 37° C. in a humidified atmosphere containing 5% CO2 for adherence of cells to wells.
3. Compound Addition • Added 25 μl of inhibitor (10^−6 to 10^−9 M) and then after 10 min added 25 μl of substrate [^3H-1β]-1α,25(OH)2D3 (20 nM) for 2 hours at 37° C. in a humidified atmosphere containing 5% CO2. Both inhibitor and substrate were prepared in DMEM with 1% BSA media in the absence and presence of 100 μM DPPD.
4. Lipid Extraction and Counting • Added 500 μL of methanol to stop the reaction. Transferred to tube. Added 250 μl of dichloromethane and vortexed. Added 250 μl of dichloromethane and 250 μl of saturated KCL and vortexed. Centrifuged at 4000 rpm for 5 min. Triplicate 100 μl aliquots of aqueous fraction were mixed with 600 μl of scintillation fluid and the radioactivity was measured using a scintillation counter. All values were normalized for background. (iii) Results.

[3] = system: SCC-25 cells; assay: [3H]-thymidine proliferation assay with SCC-25 cells; format: cell-based; details: together with calcitriol, three days, [3H]-thymidine 6 h
Procedure: 1. Preparation of Cell Suspension • When SCC-25 cells were 70-80% confluent, aspirated media. Washed the cells with 1×PBS. Trypsinized with trypsin-EDTA from the plate, collected cells from the tissue culture flask, centrifuged (500×g, 5 min) and resuspended in media.
2. Cell Plating. • Counted the cells and adjusted the cell density to 10,000/ml. Added 200 μl per well in a 96 well plate. Incubated plate for 24 h at 37° C. in a humidified atmosphere plus 5% CO2. Aspirated used media and replaced with 150 μl per well with media.
3. Compound Addition. • Added 25 μl of 1α,25(OH)2D3 (final concentration 10^−6M, 10^−7 M, 10^−8 M, M, 10^−10 M, 10^−11 M) into each designated well. Added 25 μl of substrate (final concentration 10^−7 M, 5×10^−8 M, 10^−8 M or 10^−9 M) into each designated well. Incubated plates for 3 days at 37° C. in a humidified atmosphere plus 5% CO2.
4. ^3H-Thymidine Incorporation. • Added ^3H-thymidine at 0.02 μCi per well and incubated at 37° C. in a humidified atmosphere plus 5% CO2 for 6 h.
5. Plate Harvesting. • Aspirated all media and washed cells with 1×PBS. Trypsinized cells for 30 min at 37° C. in a humidified atmosphere plus 5% CO2. Harvested cells onto a 96 well filter plate (Millipore) using a Tomtec Cell Harvestor, according to manufacturers instructions.
6. Scintillation Counting. • Added 25 μl of scintillation fluid per well. Counted the plate using a scintillation counter.

[4] = molecular target: T1, CYP24; assay: In vitro test of ability to inhibit specifically CYP24 (standard protocol); format: cell-based; details: ketoconazole as control standard
[5] = molecular target: T2, VDR (Homo sapiens, UniProt P11473); assay: VDR binding assay; details: B50: displacement of 50 percent [3H]-1,25(OH)2D3 from human recombinant VDR
T2 construct: purchased Biomol
T2 sequence (P11473 1-427): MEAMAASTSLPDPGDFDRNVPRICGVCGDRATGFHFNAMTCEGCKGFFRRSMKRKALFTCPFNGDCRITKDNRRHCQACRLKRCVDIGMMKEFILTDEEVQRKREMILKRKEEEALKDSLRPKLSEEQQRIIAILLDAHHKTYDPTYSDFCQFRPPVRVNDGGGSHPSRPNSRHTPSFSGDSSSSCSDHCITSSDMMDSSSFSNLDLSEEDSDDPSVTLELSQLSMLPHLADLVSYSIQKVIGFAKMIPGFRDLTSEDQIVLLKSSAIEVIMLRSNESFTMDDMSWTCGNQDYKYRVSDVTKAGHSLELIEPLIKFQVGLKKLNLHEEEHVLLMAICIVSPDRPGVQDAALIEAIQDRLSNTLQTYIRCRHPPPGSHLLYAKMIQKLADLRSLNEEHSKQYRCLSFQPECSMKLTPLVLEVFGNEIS
Procedure: 1. VDR 9.4 pmol/μl (human, recombinant, Biomol).
4. TEK300 • Tris-HCI 50 mM • EDTA 1.5 mM • KCI 300 mM Adjust pH to 7.4 (25° C.)
3. Preparation of 1.25(OH)2D3 and test compounds in ethanol
1 μl stock VDR in 2.5 ml TEDK300/Gelatin solution (500 μl/tube), (keep on ice)
• Label tubes according to the following chart, each in triplicate:
• Mixed all tubes via vortex and incubated at room temperature for 1 hour. Added 10 μL of 3H-1,25(OH)2D3 Working Dilution, mixed by vortex and incubated at room temperature for 1 hour 2. Sample processing • Thirty minutes before addition, put Charcoal/Dextran Solution on ice with continuous mixing. Added […] of Charcoal/Dextran Solution to each tube, mixed well and incubated on ice for 30 minutes. Centrifuged @ 2000 rpm for 10 minutes at 4° C. 3. Counting • Pipetted 100 μL of the upper, aqueous phase to a 24 well scintillation counting plate and added 600 μL scintillation fluid per well, covered and mixed well. Counted the plate using a scintillation counter for 5 min/sample. (iv) Calculations: • The amount of 1,25(OH)2D3 to displace 50 percent [^3H]-1,25(OH)2D3 from VDR was calculated as B50 for 1,25(OH)2D3. The VDR binding of other compounds was calculated as B50 relative to a value of 1 for 1,25(OH)2D3.

Row | IC50 [1] | IC50 [2] | selective inhibition of CYP24 [4] | IC50 [5] | SMILES | inhibition of proliferation of SCC-25 cells [3]
1 | 33 nM | 20 nM | – | – | C=C1/C(=C\C=C2/CCC[C@]3(C)[C@@H]([C@H](C)CCS(=N)(=O)c4ccccc4)CC[C@@H]23)C[C@@H](O)C[C@@H]1O (single isomer, unassigned) [I(c)] | act to inhibit the proliferation
2 | – | 300 nM | selectively inhibit | > 2000 nM | CN=S(=O)(CC[C@@H](C)[C@H]1CC[C@H]2/C(=C/C=C3C[C@@H](O)C[C@H](O)C3)CCC[C@]12C)c1ccccc1 (single isomer, unassigned) [I(k), 24-Phenyl N-Methyl Sulfoximine 19-Nor-Vitamin-D3] | –
3 | – | 120 nM | selectively inhibit | > 2000 nM | C=C1CC[C@H](O)C/C1=C/C=C1\CCC[C@]2(C)[C@@H]([C@H](C)CCS(=N)(=O)c3ccccc3)CC[C@@H]12 (stereo partly drawn) [I(m), 24-Phenyl Sulfoximine 1-Nor Vitamin-D3] | –
